Reference: PMC2671563 (PLoS Biology, 2009)

Legend:
mS100A9 = biological target: T1, mS100A9 (Mus musculus, UniProt P31725); assay: SPR: inhibition of mouse S100A9 binding to immobilised ABR-224649; settings: Table S1
T1 construct: made in house; host or cells: Escherichia coli (or purified from granulocytes)
T1 sequence (P31725 1-113): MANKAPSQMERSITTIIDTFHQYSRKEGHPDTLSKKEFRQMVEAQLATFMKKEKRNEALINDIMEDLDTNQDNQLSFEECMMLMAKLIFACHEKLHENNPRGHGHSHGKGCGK
Protocol: (§1) The SPR analysis was carried out with the Biacore 3000 system (GE Healthcare). Sensor chips, amine coupling kit, immobilization and running buffers, and regeneration solutions were obtained from GE Healthcare. Working solutions of all reagents used for Biacore analysis were prepared in 0.01 M Hepes, 0.15 M NaCl (pH 7.4) containing 0.005% v/v Surfactant P-20 (HBS-P; GE Healthcare) by buffer exchange on Fast Protein Desalting Micro-Spin Columns from Pierce. ABR-215757 was immobilised onto a CM5 chip through an amino-linker (ABR-224649). […] Activity of ligands after immobilisation was tested by injecting specific antibodies (unpublished data). In some experiments, S100A9 was immobilized either by random amine coupling or with a known orientation (i.e., by sulhydryl group conjugation to the only cysteine in S100A9 at position 3).
(§2) Binding to the various surfaces was performed by injecting the analyte at a flow rate of 30 μl/min in a physiological buffer (HBS-P) containing 1 mM Ca^2+ and 10 μM Zn^2+ as proposed for S100A8/9 by Robinson et al.. A typical analysis cycle consists of: (1) pumping running buffer for 1 min to obtain a stable baseline; (2) injection of sample for an appropriate period of time (association); (3) pumping running buffer for 2.5 min (dissociation); (4) injection of a short pulse (30 s) of 15 μl 10 mM glycine-HCl (pH 2.0) (regeneration); and (5) pumping running buffer for 2 min (stabilisation after regeneration) at a flow rate of 30 μl/min. […] In one experiment, S100A9 was injected into a buffer with a fixed Ca^2+ concentration (1 mM) and Zn^2+ in the range 0–50 μM. In a second experiment, Ca^2+ was varied from 0–2 mM at a fixed Zn^2+ concentration (10 μM). In subsequent analyses, regeneration was carried out under more mild conditions, i.e., by injecting 30 μl of HBS-P containing 3 mM EDTA (HBS-EP; GE Healthcare) for 60 s, to prolong the lifespan of the chip.
(§3) Compounds were also injected over the immobilised surfaces in the absence of S100A9 to exclude, or make possible correction for, any direct binding of compound to the surface.
(§4) Evaluation was carried out using BIAevaluation Software version 3.2 (GE Healthcare). The response at steady-state was obtained by fit of sensorgrams to standard binding models, where appropriate, or calculated as responses at late association or early dissociation phase using the Steady state affinity function in BIAevaluation. Affinity was determined from kinetic analysis (on- and off-rates) or as the apparent affinity after plotting responses versus concentration of analyte in a saturation curve. In the inhibition assay format, the competitor concentration yielding 50% inhibition (IC50) was calculated by fitting data to a one-site competition model in GraphPad Prism.

mS100A8/A9 and mRAGE = biological target: T2, mS100A8/A9 and mRAGE (Mus musculus, UniProt P31725); assay: SPR: inhibition of mouse S100A8/A9 binding to mouse RAGE; settings: read-out: S100A8-9 binding IC50, mS100A8/A9 RAGE; Table S1
T2 construct: purchased R&D Systems (mRAGE/Fc); S100A8/A9 made in house
T2 sequence (P31725 2-113 limits assumed): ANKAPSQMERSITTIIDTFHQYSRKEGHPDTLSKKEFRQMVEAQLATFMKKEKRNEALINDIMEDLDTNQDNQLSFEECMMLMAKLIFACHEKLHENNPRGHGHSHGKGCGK
T2 sequence (P27005 2-89 partner limits assumed): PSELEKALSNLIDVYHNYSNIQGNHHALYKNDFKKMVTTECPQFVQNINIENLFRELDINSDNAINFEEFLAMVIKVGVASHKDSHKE
Protocol: as §1, §2, §3, §4

mS100A9 and mRAGE/hFc = biological target: T3, mS100A9 and mRAGE/hFc (Mus musculus, UniProt P31725); assay: SPR: inhibition of mouse S100A9 binding to immobilised mouse RAGE; settings: read-out: S100A9 binding IC50, mS100A9 RAGE; Table S1
T3 construct: purchased R&D Systems (mRAGE/Fc); S100A9 made in house
T3 sequence (P31725 2-113 limits assumed): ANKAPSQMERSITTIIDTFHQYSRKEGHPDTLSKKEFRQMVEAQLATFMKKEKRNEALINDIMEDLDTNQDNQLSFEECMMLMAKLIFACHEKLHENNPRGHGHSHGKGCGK
Protocol: as §1, §2, §3, §4

[1] = biological target: T4, human S100A9 binding to human TLR4/MD2 (Homo sapiens, UniProt P06702); assay: SPR: inhibition of human S100A9 binding to immobilised human TLR4/MD2; settings: Table S1; read-out: S100A9 binding IC50, hS100A9 TLR4
T4 construct: purchased R&D Systems (TLR4/MD-2 complex); S100A9 made in house
T4 sequence (P06702 1-114): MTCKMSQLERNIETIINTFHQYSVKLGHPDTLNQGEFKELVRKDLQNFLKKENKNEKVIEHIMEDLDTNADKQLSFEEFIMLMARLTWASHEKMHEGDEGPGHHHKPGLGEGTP
Protocol: as §1, §2, §3, §4

mS100A8/A9 and mLPS-Trap = biological target: T5, mS100A8/A9 and mLPS-Trap (Mus musculus, UniProt P31725); assay: SPR: inhibition of mouse S100A8/A9 binding to mLPS-Trap; settings: Table S1; read-out: S100A8-9 binding IC50, mS100A8/A9 TLR4
T5 sequence (P31725 2-113 limits assumed): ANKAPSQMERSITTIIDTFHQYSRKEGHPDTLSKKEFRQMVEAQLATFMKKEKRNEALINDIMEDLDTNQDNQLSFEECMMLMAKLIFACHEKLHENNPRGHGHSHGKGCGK
Protocol: as §1, §2, §3, §4

[2] = test system: aEAE development in SLJ/N mice; assay: acute experimental autoimmune encephalomyelitis (aEAE) in mice; type: in vivo, mouse
Source text: A training set of five quinoline derivatives with structural diversification performed at position 5 of the quinoline ring system was used for the SAR. PCA was used to uncover any relationship between the binding activities of the quinoline derivatives at the S100 proteins and the inhibitory effect of these derivatives in the aEAE model. PLS was then used to model the relationship between the physiochemical descriptors used to characterize the compounds and their biological responses. […] All variables were mean centred and scaled to unit variance.

mS100A9 and mLPS-Trap = biological target: T6, mS100A9 and mLPS-Trap (Mus musculus, UniProt P31725); assay: SPR: inhibition of mouse S100A9 binding to immobilised mouse TLR4/MD2 fusion protein (mLPS-Trap); settings: Table S1
T6 sequence (P31725 2-113 limits assumed): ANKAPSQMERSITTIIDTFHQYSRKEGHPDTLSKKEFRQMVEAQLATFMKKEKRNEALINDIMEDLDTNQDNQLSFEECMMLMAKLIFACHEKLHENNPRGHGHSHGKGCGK
Protocol: as §1, §2, §3, §4

[3] = biological target: T7, human S100A9 binding to human RAGE (Homo sapiens, UniProt P06702); assay: SPR: inhibition of human S100A9 binding to immobilised human RAGE; settings: read-out: S100A9 binding IC50, hS100A9 RAGE; Table S1
T7 construct: purchased R&D Systems (RAGE/Fc); S100A9 made in house
T7 sequence (P06702 1-114): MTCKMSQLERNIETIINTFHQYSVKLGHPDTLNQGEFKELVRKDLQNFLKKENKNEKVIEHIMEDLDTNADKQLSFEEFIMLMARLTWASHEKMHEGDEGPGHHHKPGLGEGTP
Protocol: as §1, §2, §3, §4

human S100A9 = biological target: T8, human S100A9 (Homo sapiens, UniProt P06702); assay: SPR: human S100A9 binding to immobilised ABR-224649 (Q compound), direct binding and displacement
T8 construct: made in house; host or cells: Escherichia coli (or purified from granulocytes)
T8 sequence (P06702 1-114): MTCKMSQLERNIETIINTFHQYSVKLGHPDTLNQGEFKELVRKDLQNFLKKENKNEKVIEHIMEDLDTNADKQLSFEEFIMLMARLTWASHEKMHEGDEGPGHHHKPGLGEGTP
Protocol: as §1, §2, §3, §4

Compound	IC50 (mS100A9) [µM]	IC50 (mS100A8/A9 and mRAGE) [µM]	IC50 (mS100A9 and mRAGE/hFc) [µM]	IC50 [1] [µM]	IC50 (mS100A8/A9 and mLPS-Trap) [µM]	IC50 (mS100A9 and mLPS-Trap) [µM]	IC50 [3] [µM]	Kd (human S100A9; steady-state responses vs 25–200 nM S100A9, 1 mM Ca2+, 10 μM Zn2+, read-out: half-maximal binding of S100A9 to immobilised ABR-224649) [µM]	aEAE Inhibition ED50 [2] [mg/kg]	ability to displace S100A9 binding to immobilised ABR-224649 (human S100A9; coinjected with S100A9, unpublished data)
CCN(C(=O)c1c(O)c2c(C)cccc2n(C)c1=O)c1ccccc1 [ABR-215111]	1340	310	783	217	293	1240	168		0.55	
CCN(C(=O)c1c(O)c2c(Br)cccc2n(C)c1=O)c1ccccc1 [ABR-215727]	522	164	191	87.9	200	440	78.7		0.16	
CCc1cccc2c1c(O)c(C(=O)N(CCOCCN)c1ccccc1)c(=O)n2C [ABR-224649]								0.085		very similar ability to displace binding as ABR-215757

Further compounds by falling IC50 (mS100A9), results first:

IC50 (mS100A9) [µM]	IC50 (mS100A8/A9 and mRAGE) [µM]	IC50 (mS100A9 and mRAGE/hFc) [µM]	IC50 [1] [µM]	IC50 (mS100A8/A9 and mLPS-Trap) [µM]	IC50 (mS100A9 and mLPS-Trap) [µM]	IC50 [3] [µM]	Kd (human S100A9; steady-state responses vs 25–200 nM S100A9, 1 mM Ca2+, 10 μM Zn2+, read-out: half-maximal binding of S100A9 to immobilised ABR-224649) [µM]	Compound	aEAE Inhibition ED50 [2] [mg/kg]	ability to displace S100A9 binding to immobilised ABR-224649 (human S100A9; coinjected with S100A9, unpublished data)
1940	720	1030	415	576	1970	436		CCN(C(=O)c1c(O)c2ccccc2n(C)c1=O)c1ccccc1 [ABR-212662]	1.87	
916	351	230	79	301	741			CCN(C(=O)c1c(O)c2c(C(F)(F)F)cccc2n(C)c1=O)c1ccccc1 [ABR-215629]	0.13	
906	174	447	154	257	780	135		CCN(C(=O)c1c(O)c2c(SC)cccc2n(C)c1=O)c1ccccc1 [ABR-215628]	0.20	
